Read-outs that look alike come from different tables or passages of the source.
What was measured:
[1] = target: human CB2 receptors (Homo sapiens (Human), UniProt P34972); assay: cAMP assay (functional), CHO cells expressing human CB2 receptors; format: cell-based
Description: (§1) CHO cells expressing human CB1 or CB2 receptors are seeded 17-24 hours prior to the experiment 50.000 cells per well in a black 96 well plate with flat clear bottom (Corning Costar #3904) in DMEM (Invitrogen No. 31331), 1×HT supplement, with 10% fetal calf serum and incubated at 5% CO2 and 37° C. in a humidified incubator. The growth medium was exchanged with Krebs Ringer Bicarbonate buffer with 1 mM IBMX and incubated at 30° C. for 30 min. Compounds were added to a final assay volume of 100 μl and incubated for 30 min at 30° C. Using the cAMP-Nano-TRF detection kit the assay (Roche Diagnostics) was stopped by the addition of 50 μl lysis reagent (Tris, NaCl, 1.5% Triton X100, 2.5% NP40, 10% NaN3) and 50 μl detection solutions (20 μM mAb Alexa700-cAMP 1:1, and 48 μM Ruthenium-2-AHA-cAMP) and shaken for 2 h at room temperature. The time-resolved energy transfer is measured by a TRF reader (Evotec Technologies GmbH), equipped with a ND:YAG laser as excitation source. The plate is measured twice with the excitation at 355 nm and at the emission with a delay of 100 ns and a gate of 100 ns, total exposure time 10 s at 730 (bandwidth 30 nm) or 645 nm (bandwidth 75 nm), respectively. The FRET signal is calculated as follows: FRET=T730-Alexa730-P (T645-B645) with P=Ru730-B730/Ru645-B645, where T730 is the test well measured at […], T645 is the test well measured at 645 nm, B730 and B645 are the buffer controls at 730 nm and 645 nm, respectively. cAMP content is determined from the function of a standard curve spanning from 10 μM to 0.13 nM cAMP.
(§2) EC50 values were determined using Activity Base analysis (ID Business Solution, Limited). The EC50 values for a wide range of cannabinoid agonists generated from this assay were in agreement with the values published in the scientific literature.

[2] = target: human CB1 receptors (Homo sapiens (Human), UniProt P21554); assay: cAMP assay (functional), CHO cells expressing human CB1 receptors; format: cell-based
Chain of human CB1 receptors (P21554 whole entry): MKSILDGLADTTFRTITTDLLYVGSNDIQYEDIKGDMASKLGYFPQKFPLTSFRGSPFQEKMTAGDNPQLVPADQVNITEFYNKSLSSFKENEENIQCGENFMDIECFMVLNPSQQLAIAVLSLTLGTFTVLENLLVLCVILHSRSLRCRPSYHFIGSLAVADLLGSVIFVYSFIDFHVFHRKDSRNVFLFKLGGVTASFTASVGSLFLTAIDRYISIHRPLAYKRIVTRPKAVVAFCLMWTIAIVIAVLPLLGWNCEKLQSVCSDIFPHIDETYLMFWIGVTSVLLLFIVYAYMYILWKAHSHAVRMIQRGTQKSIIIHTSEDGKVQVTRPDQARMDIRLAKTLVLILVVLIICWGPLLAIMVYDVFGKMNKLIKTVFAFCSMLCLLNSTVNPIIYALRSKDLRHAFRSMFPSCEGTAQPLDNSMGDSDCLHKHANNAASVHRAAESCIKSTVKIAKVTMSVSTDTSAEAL
Description: as §1, §2

[3] = functional cAMP assay, CHO cells expressing human CB2, read-out: human CB2 EC50
[4] = functional cAMP assay, CHO cells expressing human CB1, read-out: human CB1 EC50

Chain of human CB2 receptors (P34972 whole entry): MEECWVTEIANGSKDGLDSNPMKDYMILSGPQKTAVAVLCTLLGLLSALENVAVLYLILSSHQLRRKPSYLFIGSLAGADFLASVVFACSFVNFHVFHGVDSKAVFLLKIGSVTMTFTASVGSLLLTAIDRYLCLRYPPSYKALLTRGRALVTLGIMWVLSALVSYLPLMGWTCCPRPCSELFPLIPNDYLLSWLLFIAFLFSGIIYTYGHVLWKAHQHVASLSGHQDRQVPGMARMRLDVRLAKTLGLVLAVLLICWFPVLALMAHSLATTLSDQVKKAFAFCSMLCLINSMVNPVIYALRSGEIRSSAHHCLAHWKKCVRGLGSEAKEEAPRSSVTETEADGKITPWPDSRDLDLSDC

| SMILES | EC50 [1, 3] [nM] | EC50 [2, 4] [nM] | EC50 [1] [nM] | EC50 [2] [nM] |
| --- | --- | --- | --- | --- |
| CCOC(=O)CN(C(=O)c1cnc(N2CC(F)(F)C2)c(OCC2CC2)n1)C(C)(C)C [Example 11, {tert-Butyl-[6-cyclopropylmethoxy-5-(3,3-difluoro-azetidin-1-yl)-pyrazine-2-carbonyl]-amino}-acetic acid ethyl ester] | 6.8 | > 10000 |  |  |
| CN(C(=O)c1cnc(N2CC(F)(F)C2)c(OCC2CC2)n1)C(C)(C)C [Example 7, 6-Cyclopropylmethoxy-5-(3,3-difluoro-azetidin-1-yl)-pyrazine-2-carboxylic acid tert-butyl-methyl-amide] | 3.2 | > 10000 |  |  |
| CC1(C)CCCN1C(=O)c1cnc(N2CC(F)(F)C2)c(OCC2CC2)n1 [Example 21, [6-Cyclopropylmethoxy-5-(3,3-difluoro-azetidin-1-yl)-pyrazin-2-yl]-(2,2-dimethyl-pyrrolidin-1-yl)-methanone] | 4.3 | > 10000 |  |  |
| C[C@@H]1CCCN1C(=O)c1cnc(N2CC(F)(F)C2)c(OCC2CC2)n1 [Example 2, [6-Cyclopropylmethoxy-5-(3,3-difluoro-azetidin-1-yl)-pyrazin-2-yl]-((R)-2-methyl-pyrrolidin-1-yl)-methanone] | 4.9 | > 10000 |  |  |
| CC1(C)CCCN1C(=O)c1cnc(N2CC(F)(F)C2)c(OCC(F)(F)F)n1 [Example 32, [5-(3,3-Difluoro-azetidin-1-yl)-6-(2,2,2-trifluoro-ethoxy)-pyrazin-2-yl]-(2,2-dimethyl-pyrrolidin-1-yl)-methanone] | 81.2 | > 10000 |  |  |
| NC(=O)C1CCCCN1C(=O)c1cnc(N2CC(F)(F)C2)c(OCC2CC2)n1 (stereo not shown) [Example 33, 1-[6-Cyclopropylmethoxy-5-(3,3-difluoro-azetidin-1-yl)-pyrazine-2-carbonyl]-piperidine-2-carboxylic acid amide] | 330 | > 10000 |  |  |
| CC(=O)O[C@H]1CCN(C(=O)c2cnc(N3CC(F)(F)C3)c(OCC3CC3)n2)C1 [Example 27, Acetic acid (S)-1-[6-cyclopropylmethoxy-5-(3,3-difluoro-azetidin-1-yl)-pyrazine-2-carbonyl]-pyrrolidin-3-yl ester] | 271 | > 10000 |  |  |
| CC1(C)CC(C(N)=O)N(C(=O)c2cnc(N3CC(F)(F)C3)c(OCC3CC3)n2)C1 (single isomer, unassigned; (-)) [Example 38, (−)-1-[6-Cyclopropylmethoxy-5-(3,3-difluoro-azetidin-1-yl)-pyrazine-2-carbonyl]-4,4-dimethyl-pyrrolidine-2-carboxylic acid amide] | 1.4 | > 10000 |  |  |
| O=C(c1cnc(C2CC2)c(OCC2CC2)n1)N1CC(F)(F)C(F)(F)C1 [Example 26, (5-Cyclopropyl-6-cyclopropylmethoxy-pyrazin-2-yl)-(3,3,4,4-tetrafluoro-pyrrolidin-1-yl)-methanone] | 124 | > 10000 |  |  |
| CC1(O)C[C@@H](C(N)=O)N(C(=O)c2cnc(N3CC(F)(F)C3)c(OCC3CC3)n2)C1 (stereo partly drawn) [Example 41, (2S)-1-[6-(Cyclopropylmethoxy)-5-(3,3-difluoroazetidin-1-yl)pyrazine-2-carbonyl]-4-hydroxy-4-methylpyrrolidine-2-carboxamide] | 90 | > 10000 |  |  |
| O=C(c1cnc(N2CC(F)(F)C2)c(OCC2CC2)n1)N1CCOCC12CC2 [Example 10, [6-Cyclopropylmethoxy-5-(3,3-difluoro-azetidin-1-yl)-pyrazin-2-yl]-(7-oxa-4-aza-spiro[2.5]oct-4-yl)-methanone] | 15 | > 10000 |  |  |
| CC1(C)COCCN1C(=O)c1cnc(N2CC(F)(F)C2)c(OCC2CC2)n1 [Example 4, [6-Cyclopropylmethoxy-5-(3,3-difluoro-azetidin-1-yl)-pyrazin-2-yl]-(3,3-dimethyl-morpholin-4-yl)-methanone] | 4.3 | > 10000 |  |  |
| COC(=O)[C@H]1CCCN1C(=O)c1cnc(N2CC(F)(F)C2)c(OCC2CC2)n1 [Example 22, (R)-1-[6-Cyclopropylmethoxy-5-(3,3-difluoro-azetidin-1-yl)-pyrazine-2-carbonyl]-pyrrolidine-2-carboxylic acid methyl ester] | 252 | > 10000 |  |  |
| CC1(C)CN(C(=O)c2cnc(N3CC(F)(F)C3)c(OCC3CC3)n2)CCO1 [Example 13, [6-Cyclopropylmethoxy-5-(3,3-difluoro-azetidin-1-yl)-pyrazin-2-yl]-(2,2-dimethyl-morpholin-4-yl)-methanone] | 68.5 | > 10000 |  |  |
| CC1(C)CC(C(N)=O)N(C(=O)c2cnc(N3CC(F)(F)C3)c(OCC3CC3)n2)C1 (stereo not shown) [Example 35, 1-[6-Cyclopropylmethoxy-5-(3,3-difluoro-azetidin-1-yl)-pyrazine-2-carbonyl]-4,4-dimethyl-pyrrolidine-2-carboxylic acid amide] | 11.5 | > 10000 |  |  |
| NC(=O)C1CSCCN1C(=O)c1cnc(N2CC(F)(F)C2)c(OCC2CC2)n1 (single isomer, unassigned; (-)) [Example 37, (−)-4-[6-Cyclopropylmethoxy-5-(3,3-difluoro-azetidin-1-yl)-pyrazine-2-carbonyl]-thiomorpholine-3-carboxylic acid amide] | 308 | > 10000 |  |  |
| O=C(c1cnc(N2CC(F)(F)C2)c(OCC2CC2)n1)N1CCC(F)(F)C1 [Example 8, [6-Cyclopropylmethoxy-5-(3,3-difluoro-azetidin-1-yl)-pyrazin-2-yl]-(3,3-difluoro-pyrrolidin-1-yl)-methanone] | 29.8 | > 10000 |  |  |
| COC(=O)[C@@H]1CCCN1C(=O)c1cnc(C2CC2)c(OCC2CC2)n1 [Example 16, (S)-1-(5-Cyclopropyl-6-cyclopropylmethoxy-pyrazine-2-carbonyl)-pyrrolidine-2-carboxylic acid methyl ester] | 191 | > 10000 |  |  |
| COCC(C)(C)N(C)C(=O)c1cnc(C2CC2)c(OCC2CC2)n1 [Example 14, 5-Cyclopropyl-6-cyclopropylmethoxy-pyrazine-2-carboxylic acid (2-methoxy-1,1-dimethyl-ethyl)-methyl-amide] | 14.6 | > 10000 |  |  |
| NC(=O)C1CC2(CC2)CN1C(=O)c1cnc(N2CC(F)(F)C2)c(OCC2CC2)n1 (racemic) [Example 40, (±)-5-[6-(Cyclopropylmethoxy)-5-(3,3-difluoroazetidin-1-yl)pyrazine-2-carbonyl]-5-azaspiro[2.4]heptane-6-carboxamide] |  |  | 39 | > 10000 |
| CC(=O)OC1(C)CCN(C(=O)c2cnc(C3CC3)c(OCC3CC3)n2)C1 (stereo not shown) [Example 25, Acetic acid 1-(5-cyclopropyl-6-cyclopropylmethoxy-pyrazine-2-carbonyl)-3-methyl-pyrrolidin-3-yl ester] | 110 | > 10000 |  |  |
| CC1(C)CC(C(N)=O)N(C(=O)c2cnc(C3CC3)c(OCC3CC3)n2)C1 (single isomer, unassigned; (-)) [Example 39, (−)-1-(5-Cyclopropyl-6-cyclopropylmethoxy-pyrazine-2-carbonyl)-4,4-dimethyl-pyrrolidine-2-carboxylic acid amide] | 10.3 | > 10000 |  |  |
| COCCN(C(=O)c1cnc(N2CC(F)(F)C2)c(OCC2CC2)n1)C(C)(C)C [Example 3, 6-Cyclopropylmethoxy-5-(3,3-difluoro-azetidin-1-yl)-pyrazine-2-carboxylic acid tert-butyl-(2-methoxy-ethyl)-amide] | 4 | > 10000 |  |  |

— patent US9512141B2, “Pyrazine derivatives as CB2 receptor agonists” (Hoffmann-La Roche Inc., priority 2012, dated 2016)
